Test results from publication PMC8501799, “Constitutive signal bias mediated by the human GHRHR splice variant 1” (Proceedings of the National Academy of Sciences of the …, 2021).

Tests used:
SV1/Gs = assay: Gs activation (G protein NanoBiT assay); format: cell-based, human; details: HEK293T
Procedure: HEK293T cells were seeded at a density of 30,000 cells per well into 96-well culture plates pretreated with poly-D-lysine hydrobromide. After incubation for 24 h to reach 70% to 80% confluence, the cells were transiently transfected with GHRHR or SV1, Gαs-LgBiT, Gβ1, and Gγ2-SmBiT, at a 2:1:5:5 mass ratio. Twenty-four hours after transfection, cells were washed once and incubated for 30 min at 37 °C with HBSS buffer (pH 7.4) supplemented with 0.1% BSA and 10 mM HEPES. They were then reacted with coelenterazine H (5 μM) for 1 h at RT. Luminescence signals were measured using an Envision plate reader at 15-s intervals (25 °C). […] Data were corrected to baseline and vehicle-treated samples.
(§1) All functional study data were analyzed using Prism 7 (GraphPad) and presented as means ± SEM from at least three independent experiments. Concentration-response curves were evaluated with a three-parameter logistic equation. The significance was determined with either two-tailed Student’s t test or one-way ANOVA, and P < 0.05 is considered statistically significant.
Table S1. Effects of SV1 on GHRH-induced Gs activation.
Plasmid pEC50 Emax (% WT GHRHR)
G protein NanoBiT data were analyzed using a three-parameter logistic equation to d et ermine pEC50 and Emax values. pEC50 is the negative logarithm of the molar concentration of agonist that induced half the maximal response. Emax is expressed as a percentage of GHRHR/Gs response.
All values are means ± S.E.M. of five independent experiments (n = 5) conducted in duplicate. One-way ANOVA was used to determine statistical significance (*P < 0.05). WT, wild-type; NA, not

WT GHRHR = target: T1, WT GHRHR (Homo sapiens, UniProt Q02643); assay: cAMP accumulation; format: cell-based; details: for Emax: HEK-293T, HEK293T; for ΔLog (τ/KA): operational model, τ corrected by cell surface expression
T1 construct: Comparison of SV1 with full-length or truncated GHRHR that lacks ECD or the first 89 residues (B); expressed in transfected cells; host or cells: HEK293T
T1 sequence (Q02643 23-423): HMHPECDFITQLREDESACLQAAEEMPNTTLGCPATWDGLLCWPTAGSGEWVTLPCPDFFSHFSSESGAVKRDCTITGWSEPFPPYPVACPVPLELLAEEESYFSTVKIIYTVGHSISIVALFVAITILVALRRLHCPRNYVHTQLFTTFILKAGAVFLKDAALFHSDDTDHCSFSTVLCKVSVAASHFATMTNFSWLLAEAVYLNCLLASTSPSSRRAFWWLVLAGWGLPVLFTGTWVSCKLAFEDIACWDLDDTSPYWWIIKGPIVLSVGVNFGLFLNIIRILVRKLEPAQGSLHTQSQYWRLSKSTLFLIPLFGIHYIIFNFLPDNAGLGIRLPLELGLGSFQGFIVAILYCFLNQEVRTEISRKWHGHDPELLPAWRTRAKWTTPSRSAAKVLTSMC
Procedure: GHRH-stimulated cAMP accumulation was measured by a LANCE Ultra cAMP kit (PerkinElmer). Briefly, HEK293T cells (24 h after transfection with SV1 or GHRHR) or prostate cancer cells were digested by 0.2% (wt/vol) EDTA and washed once with Dulbecco’s phosphate-buffered saline (PBS). Cells were then resuspended with stimulation buffer (Hanks’ balanced salt solution [HBSS] supplemented with 5 mM HEPES, 0.5 mM IBMX, and 0.1% [wt/vol] bovine serum albumin [BSA], pH 7.4) to a density of 0.6 million cells per milliliter and added to 384-well white plates (3,000 cells per well). […] The reaction was stopped by adding 5 μL Eu-cAMP tracer and 5 μL ULight-anti-cAMP. After 1 h RT incubation, TR-FRET signals (excitation: 320 nm, emission: 615 and 665 nm) were measured by an Envision plate reader (PerkinElmer). cAMP concentrations were interpolated by a standard curve.
as §1
Table S2. Effects of residue mutation or truncation in the ECD of GHRHR on GHRH-induced cAMP […]
Mutant pEC50 Emax (% WT GHRHR) expression ΔLog (τ/KA) […]
cAMP accumulation data were analyzed using a three-parameter logistic equation to determine pEC50 and Emax values. pEC50 is the negative logarithm of the molar concentration of agonist that induced half the maximal response. Emax for mutants is expressed as a percentage of the WT GHRHR. Data were analyzed by nonlinear regression using the operational model equation to determine t he logR values (logτ/KA, i.e., logarithm of the transduction ratio). τ is the effi cacy value of the agonist and was corrected by cell surface expression of the receptor. KA is dissociation constant. Changes in transduction ratio (ΔlogR) were calculated to determine the relative effectiveness of the mutants. All values are means ± S.E.M. of at le ast three ind ep en dent experiments (n = 3-5) conducted in quadruplicate. Statistical analysis was carried out by comparing the control responses in the WT GHRHR. **, P < 0.01 and ***, P < 0.001, determined by one-way […]
Table S4. Effects of residue mutation in the ligand-binding pocket of SV1 on GHRH-induced cAMP […]
Mutant pEC50 Emax Cell surface expression ΔLog (τ/KA) […]
effectiveness of the mutants. All values are means ± S.E.M. of four independent experiments (n = 4) conducted in quadruplicate. Statistical analysis was carried out by comparing the control responses in the WT-SV1. *, P < 0.05, **, P < 0.01 and ***, P < 0.001, determined by one-way

GHRHR Δ32 = target: T2, GHRHR Δ32 (Homo sapiens, UniProt Q02643); assay: cAMP accumulation; format: cell-based; details: Table S2; operational model; τ corrected by cell surface expression; relative to WT GHRHR; mean ± SEM
T2 construct: expressed in transfected cells; host or cells: HEK293T
Procedure: Concentration-response curves were evaluated with a three-parameter logistic equation.

[1] = system: N terminus truncated GHRHRs; assay: β-arrestin 1/2 recruitment (BRET), truncated receptors; format: cell-based, human; details: HEK293T
Procedure: HEK293T cells were seeded at a density of 30,000 cells per well into 96-well culture plates pretreated with poly-D-lysine hydrobromide. After incubation for 24 h to reach 70% to 80% confluence, the cells were transiently transfected with HA-Flag-GHRHR-Rluc8 or HA-Flag-SV1-Rluc8 and β-arrestin 1/2-Venus at a 1:9 mass ratio using lipofectamine 3000 reagent (Invitrogen) and cultured for another 24 h. Thereafter, cells were washed once and incubated for 30 min at 37 °C with HBSS buffer (pH 7.4) supplemented with 0.1% BSA and 10 mM HEPES. Five micromolars of coelenterazine h (YEASEN Biotechnology) was then added and incubated for 5 min in the dark. The bioluminescence resonance energy transfer (BRET) signals were detected with an Envision plate reader by calculating the ratio of emission at 535 nm over emission at 470 nm.

CC[C@H](C)[C@H](NC(=O)[C@H](C)NC(=O)[C@H](CC(=O)O)NC(=O)[C@H](C)NC(=O)[C@@H](N)Cc1ccc(O)cc1)C(=O)N[C@@H](Cc1ccccc1)C(=O)N[C@H](C(=O)N[C@@H](CC(N)=O)C(=O)N[C@@H](CO)C(=O)N[C@@H](Cc1ccc(O)cc1)C(=O)N[C@@H](CCCNC(=N)N)C(=O)N[C@@H](CCCCN)C(=O)N[C@H](C(=O)N[C@@H](CC(C)C)C(=O)NCC(=O)N[C@@H](CCC(N)=O)C(=O)N[C@@H](CC(C)C)C(=O)N[C@@H](CO)C(=O)N[C@@H](C)C(=O)N[C@@H](CCCNC(=N)N)C(=O)N[C@@H](CCCCN)C(=O)N[C@@H](CC(C)C)C(=O)N[C@@H](CC(C)C)C(=O)N[C@@H](CCC(N)=O)C(=O)N[C@@H](CC(=O)O)C(=O)N[C@H](C(=O)N[C@@H](CCSC)C(=O)N[C@@H](CO)C(=O)N[C@@H](CCCNC(=N)N)C(=O)N[C@@H](CCC(N)=O)C(=O)N[C@@H](CCC(N)=O)C(=O)NCC(=O)N[C@@H](CCC(=O)O)C(=O)N[C@@H](CO)C(=O)N[C@@H](CC(N)=O)C(=O)N[C@@H](CCC(N)=O)C(=O)N[C@@H](CCC(=O)O)C(=O)N[C@@H](CCCNC(=N)N)C(=O)NCC(=O)N[C@@H](C)C(=O)N[C@@H](CCCNC(=N)N)C(=O)N[C@@H](C)C(=O)N[C@@H](CCCNC(=N)N)C(=O)N[C@@H](CC(C)C)C(N)=O)[C@@H](C)CC)C(C)C)[C@@H](C)O [GHRH, growth hormone–releasing hormone]
Emax of Gs activation (SV1/Gs; AUC 0 to 25 min, mean ± SEM, n = 5 in duplicate, * P < 0.05): 56.67 ± 13.79 % WT GHRHR
pEC50 of Gs activation (SV1/Gs; AUC 0 to 25 min, three-parameter logistic, mean ± SEM, n = 5 in duplicate, * P < 0.05): 5.63 ± 0.36
ability of SV1 to activate Gs (SV1/Gs; compared with GHRHR, Fig. 1A): significantly impaired
Emax (WT GHRHR; Table S4, n = 4 in quadruplicate): 100%
Emax (WT GHRHR; Table S2, mean ± SEM, n = 3-5 in quadruplicate): 100 ± 1.81%
ΔLog (τ/KA) (WT GHRHR; Table S2, relative to WT GHRHR, mean ± SEM): 0 ± 0.05
ΔLog (τ/KA) (WT GHRHR; Table S4, mean ± SEM, n = 4): 0.00 ± 0.09
ΔLog (τ/KA) (GHRHR Δ32): -3.23 ± 0.04
β-arrestin 1/2 recruitments ([1]; deletion made before the first 82 residues, 250 μM GHRH): not affected
β-arrestin 1/2 recruitments ([1]; truncation of the first 89 residues or the entire ECD): enhanced
